In US20220411448A1, “CHROMENE-4-ONE DERIVATIVES AS BRAIN-DERIVED NEUROTROPHIC FACTOR (BDNF) MIMETICS” (FLORATEK PHARMA AG, priority 2019, published 2022):

Assays:
Type in all cases: cell-based, mouse
[1] = tested on: organotypic hippocampal brain slices with IAA lesion; assay: Organotypic brain slices, iodoacetic acid injury: mitochondrial membrane potential (TMRM); details: SND118 10 and 30 μM; SND124 30 μM; IAA 250 μM for 110 min
Procedure: Preparation of the organotypic brain slices were performed by decapitation of the P9/P10 mouse pups, removing skin and skull and immersing brains in slicing medium (Opti-MEM 1, […]). Brains were hemisected and hippocampi were isolated. Hippocampi were placed on the cutting disc of a McIlwain Tissue Chopper. […] hippocampal slices were chopped transversely. A number of 4 slices per hippocampus were placed on porous (0.4 μM) transparent membrane inserts (Millipore) and incubated for 1 h on ice in HBSS containing 10 mM glucose. Afterwards inserts were transferred to fresh 24-well plates containing 250-300 μl culture medium (50% MEM/EBSS, 25% horse serum, 25% CMF-HBSS, 25 mM glucose, 0.5% pen/strep). Slices were maintained at 37° C. and 5% CO2.
On DV15, brain slices were pretreated with SND derivatives test compounds and the reference 7,8DHF at various concentrations (between […]) for 30 min, followed by the addition of iodoacetic acid (IAA) at 250 μM for 110 min, when cell survival, MMP and toxicity were measured.
Cell survival was measured by the MTT assay. […] Fluorescence was measured with a plate-reader (Cytation 5) using wavelengths of excitation and emission of 548 and 574 nm, respectively (area scan). Values were calculated as percent of control values (vehicle control). Toxicity of the treatment was measured by LDH. […]

[2] = tested on: primary brain cell cultures; assay: NAD/NADH cycling assay; details: after 30 min in the presence of the compound
Procedure: Cycling assays for nicotinamide adenine dinucleotides was performed as described [Yang J, et al, Lactate promotes plasticity gene expression by potentiating NMDA signaling in neurons. Proc Natl Acad Sci USA. 2014. 111(33):12228-33]. Briefly, cells were rinsed two times with ice-cold PBS, harvested in 400 μL ice-cold carbonate-bicarbonate buffer (100 mM Na2CO3 and 20 mM NaHCO3 containing 10 mM nicotinamide to inhibit NADase), and frozen at −80° C. Cell membranes were lysed by heat shock in a 37° C. water bath and immediately chilled on ice. Extracts were centrifuged at 12,000×g for 30 min at 4° C. and half of the supernatant was heated at 60° C. for 30 min to denature NAD. Twenty-five microliters of the heated extract (containing NADH only), 100 μL of the unheated extract (containing NAD and NADH), and 50 μL of standards of known NADH (Roche) concentrations (ranging from 0.0625 to 1 μM) dissolved in carbonate bicarbonate buffer were loaded onto a 96-well microplate along with blanks (carbonate-bicarbonate buffer). Volumes were adjusted to 100 μL with carbonate-bicarbonate buffer and 150 μL of a reaction buffer was added into each well. […] The absorbance was followed spectrophotometrically at 560 nm every 15 s over a 5-min period (Safire 2; Tecan). Blank values were subtracted from all samples and NAD amounts were calculated by subtracting NADH values from total NAD+NADH values.

[3] = tested on: cortical neurons with MPP+ lesion; assay: MPP+ induced apoptosis in cortical neurons (YO-PRO-1); details: 0.5 and 1 μM, 24 h MPP+ lesion
Procedure: Mouse cortical neurons were prepared as described. At DIV8 cells were treated with the test and control MK801 compounds for 1 h, before the addition of MPP+(Sigma, D048) at a final concentration of 100-200 μM. The experiment was carried out with n=6 technical replicates per condition, vehicle and MPP+ alone controls were included. After 8 h determination of ROS was conducted and after 24 h of MPP+ lesion on DIV9 cells were subject to the apoptosis measurement. Apoptosis was determined using YO-PRO™-1 Iodide (Invitrogen; Y3603). Part of supernatant of the cultivated cells was removed and 10 μL of a 50 μM YO-PRO 1 solution in PBS is added to the remaining 90 μL to result in a final concentration of 5 μM YO-PRO 1 in well. Incubation for 15 min in the incubator at 37° C. was performed (light protected) followed by discarding the supernatant. 140 μL PBS was added to each well and the fluorescence was measured using a plate-reader (Cytation 5, BioTek) at excitation wavelength 485 nm to Emission wavelength 535 nm.

TrkB receptor = assay: Activation of TrkB receptor: phosphorylation in cortical neurons (WES capillary immunoassay)
Procedure: On the day of preparation (DIV1) cortical neurons were seeded on poly-D-lysine pre-coated 6-well plates at a density of 1.25*10^6 cells per well and cultured at 37° C.; 95% humidity and 5% CO2 until […] with a half medium exchange on DIV4-6. On DIV10 cells are treated with test item TI (SND118) and control Rh (7,8DHF) at different concentrations for 15 min. The experiment was carried out with n=6 technical replicates per condition, vehicle treated cells served as control. Cells were lysed in 150 μL cold RIPA buffer [50 mM Tris pH 7.4, 1% Nonidet P40, 0.25% Na-deoxy-cholate, 150 mM NaCl, 1 mM EDTA supplemented with freshly added 1 μM NaF, 0.2 mM Na-ortho-vanadate, 80 μM Glycerophosphate, protease (Calbiochem) and phosphatase (Sigma) inhibitor cocktail.
Phosphorylation of the TrkB receptor was detected using the following rabbit anti-Tyr specific antibodies: anti-TrkB Y515, Y706/707 and Y816 and compared with total TrkB detected with anti-TrkB antibody (Abcam). Antibody dilutions and protein amounts were optimized for signal specificity.
Automated separation and immunostaining of total and phospho TrkB was carried out using a capillary-based immunoassay, WES™ (Proteinsimple®). Samples were applied to a 25 capillary cartridge with a 2 to 440 kDa matrix, at an optimized total protein concentration. Sample loading, separation, immunoprobing, washing, detection and quantitative data analysis were performed automatically by WES™ Western system (Compass software V 4.0.0). The areas under the curve were used for the analysis and the phosphorylated versus vehicle or total TrkB signal ratio was calculated and used for statistics.

## O=c1cc(-c2ccc(CCCC[P+](c3ccccc3)(c3ccccc3)c3ccccc3)cc2)oc2c(O)c(O)ccc12 [SND118, 4-[4-(7,8-dihydroxy-4-oxo-chromen-2-yl)phenyl]butyltriphenylphosphonium bromide]
[1]
  mitochondria function (MMP, TMRM) after IAA lesion: rescued mitochondria function
[2]
  production of NADH (NAD/NADH ratio): increased production of ATP and NADH
[3]
  apoptosis induced by MPP+ (YO-PRO-1): significantly inhibited apoptosis
TrkB receptor
  phospho Tyr706/707 signal normalized to the TrkB: significant increase
TrkB receptor; 1 and 2 μM
  phosphorylation of the TrkB receptor at sites Tyr 515 and Tyr 816: induced statistically significant phosphorylation
TrkB receptor; SND118 2 μM
  phosphorylation of TrkB at Tyr residue 706/707 versus the vehicle: increased slightly
